Measured values as given in patent publication US8119624B2, “Fused phenyl amido heterocyclic compounds” (Pfizer Inc., priority 2006, dated 2012).

Molecular target: T1, Full-length glucokinase (beta cell isoform) (Homo sapiens, UniProt P35557)
T1 construct: Full-length glucokinase (beta cell isoform) was His-tagged at N-terminus; His tag (N); made in house
T1 sequence (P35557 1-465): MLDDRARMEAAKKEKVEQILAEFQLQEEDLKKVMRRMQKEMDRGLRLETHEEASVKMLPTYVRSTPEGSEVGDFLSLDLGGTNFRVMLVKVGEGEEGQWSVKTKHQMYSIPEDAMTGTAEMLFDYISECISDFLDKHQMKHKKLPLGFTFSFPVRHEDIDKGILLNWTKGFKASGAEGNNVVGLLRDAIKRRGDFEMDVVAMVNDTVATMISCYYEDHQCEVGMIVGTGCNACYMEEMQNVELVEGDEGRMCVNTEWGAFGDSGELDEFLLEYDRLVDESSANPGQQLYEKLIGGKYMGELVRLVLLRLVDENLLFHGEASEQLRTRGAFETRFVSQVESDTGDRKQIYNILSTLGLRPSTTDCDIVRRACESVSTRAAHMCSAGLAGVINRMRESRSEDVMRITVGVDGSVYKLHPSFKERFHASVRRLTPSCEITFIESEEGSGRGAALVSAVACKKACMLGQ
Assay: Glucokinase biochemical assay (PK/LDH-coupled, NADH depletion at 340 nm): % activation, EC50, % max activation
Conditions: 5 mM glucose; for activation at 10 µM: 10 uM compound, % Activation=(Va/Vo−1)×100, read-out: % Activation at 10 uM; for EC50: GK activation, read-out: EC50; for Emax: fitted maximum activation, read-out: % Max Activation
Outline: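 Activation expressed as (Va/Vo−1)×100, where initial rates with and without compound come from NADH depletion at 340 nm over 200–900 s. Enzyme is His-tagged human beta-cell GK, full length, run at room temperature in HEPES buffer with 1 mM ATP and 5 mM glucose. DMSO 1%.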

Row | activation at 10 µM | EC50 | Emax | Structure (SMILES)
1 | 57.5% | > 10 µM | – | Cn1ccc(NC(=O)c2cc(Oc3ccc(S(C)(=O)=O)cc3)c3occc3c2)n1 [Example 332, N-(1-Methyl-1H-pyrazol-3-yl)-7-[4-(methylsulfonyl)phenoxy]-1-benzofuran-5-carboxamide]
2 | 52.8% | 8.6 µM | 106% | Cc1ccc(NC(=O)c2cc(Oc3ccc(S(C)(=O)=O)cc3)c3occc3c2)nc1 [Example 333, N-(5-methylpyridin-2-yl)-7-[4-(methylsulfonyl)phenoxy]-1-benzofuran-5-carboxamide]
3 | 35% | – | – | CN(C)C(=O)c1ccc(Oc2cc(C(=O)Nc3ccn(C)n3)cc3ccoc23)cc1 [Example 334, 7-{4-[(Dimethylamino)carbonyl]phenoxy}-N-(1-methyl-1H-pyrazol-3-yl)-1-benzofuran-5-carboxamide]
4 | 26% | – | – | Cc1ccc(NC(=O)c2cc(Oc3ccc(C(=O)N(C)C)cc3)c3occc3c2)nc1 [Example 335, 7-{4-[(Dimethylamino)carbonyl]phenoxy}-N-(5-methylpyridin-2-yl)-1-benzofuran-5-carboxamide]
5 | 8.4% | – | – | C[C@@H](Cc1ccccc1)Oc1cc(C(=O)Nc2ccn(C)n2)cc2ccoc12 [Example 336, 7-[(1S)-1-Methyl-2-phenylethoxy]-N-(1-methyl-1H-pyrazol-3-yl)-1-benzofuran-5-carboxamide]
6 | 42.6% | 3 µM | 89% | Cc1ccc(NC(=O)c2cc(Oc3ccc(S(C)(=O)=O)cc3)c3oc(C)cc3c2)nc1 [Example 337, 2-Methyl-N-(5-methylpyridin-2-yl)-7-[4-(methylsulfonyl)-phenoxy]-1-benzofuran-5-carboxamide]
7 | 84.5% | 4.3 µM | 147% | Cc1cc2cc(C(=O)Nc3ccn(C)n3)cc(Oc3ccc(S(C)(=O)=O)cc3)c2o1 [Example 338, 2-Methyl-N-(1-methyl-1H-pyrazol-3-yl)-7-[4-(methylsulfonyl)-phenoxy]-1-benzofuran-5-carboxamide]
8 | -0.7% | – | – | Cc1ccc(NC(=O)c2cc(Oc3ccc(C(=O)N(C)C)cc3)c3oc(C)cc3c2)nc1 [Example 339, 7-{4-[(Dimethylamino)carbonyl]phenoxy}-2-methyl-N-(5-methylpyridin-2-yl)-1-benzofuran-5-carboxamide]
9 | 41.2% | > 10 µM | – | Cc1cc2cc(C(=O)Nc3ccn(C)n3)cc(O[C@@H](C)Cc3ccccc3)c2o1 [Example 340, 2-Methyl-7-[(1S)-1-methyl-2-phenylethoxy]-N-(1-methyl-1H-pyrazol-3-yl)-1-benzofuran-5-carboxamide]
10 | 59% | 1.7 µM | 69% | CN(C)C(=O)c1ccc(Oc2cc(C(=O)Nc3ccn(C)n3)cc3occc23)cc1F [Example 341, 4-(4-(Dimethylcarbamoyl)-3-fluorophenoxy)-N-(1-methyl-1H-pyrazol-3-yl)benzofuran-6-carboxamide]
11 | 15% | – | – | Cc1ccc(NC(=O)c2cc(Oc3ccc(C(=O)N(C)C)c(F)c3)c3ccoc3c2)nc1 [Example 342, 4-(4-(Dimethylcarbamoyl)-3-fluorophenoxy)-N-(5-methylpyridin-2-yl)benzofuran-6-carboxamide]
12 | 82.5% | > 10 µM | – | Cn1ccc(NC(=O)c2cc(Oc3ccc(S(C)(=O)=O)cc3)c3ccoc3c2)n1 [Example 343]

The next lines start with the molecule.

Row | Structure (SMILES) | activation at 10 µM | EC50 | Emax
13 | COCc1cc2c(Oc3ccc(S(C)(=O)=O)cc3)cc(C(=O)Nc3cc(C)on3)cc2o1 [Example 315, 2-(Methoxymethyl)-N-(5-methylisoxazol-3-yl)-4-[4-(methylsulfonyl)phenoxy]-1-benzofuran-6-carboxamide] | 11.9% | – | –
14 | Cc1ccc(NC(=O)c2cc(Oc3ccc(S(C)(=O)=O)cc3)c3cc(CO)oc3c2)nc1 [Example 316, 2-(Hydroxymethyl)-N-(5-methylpyridin-2-yl)-4-(4-(methylsulfonyl)-phenoxy)benzofuran-6-carboxamide] | 73.7% | 0.41 µM | 78%
15 | Cn1ccc(NC(=O)c2cc(Oc3ccc(S(C)(=O)=O)cc3)c3cc(CO)oc3c2)n1 [Example 317, 2-(Hydroxymethyl)-N-(1-methyl-1H-pyrazol-3-yl)-4-[4-(methylsulfonyl)-phenoxy]-1-benzofuran-6-carboxamide] | 186% | 1.7 µM | 228%
16 | Cn1ccc(NC(=O)c2cc(Oc3ccc(S(C)(=O)=O)cc3)c3cc(CN4CCCC4=O)oc3c2)n1 [Example 318, N-(1-Methyl-1H-pyrazol-3-yl)-4-[4-(methylsulfonyl)phenoxy]-2-[(2-oxopyrrolidin-1-yl)methyl]-1-benzofuran-6-carboxamide] | 91.3% | > 10 µM | –
17 | Cc1ccc(NC(=O)c2cc(Oc3ccc(S(C)(=O)=O)cc3)c3cc(CN(C)C)oc3c2)nc1 [Example 319, 2-[(Dimethylamino)methyl]-N-(5-methylpyridin-2-yl)-4-[4-(methylsulfonyl)-phenoxy]-1-benzofuran-6-carboxamide] | 59.7% | 5 µM | 90%
18 | Cc1ccc(NC(=O)c2cc(Oc3ccc(S(C)(=O)=O)cc3)c3cc(Cn4ccnc4C)oc3c2)nc1 [Example 320, 2-[(2-Methyl-1H-imidazol-1-yl)methyl]-N-(5-methylpyridin-2-yl)-4-[4-(methylsulfonyl)phenoxy]-1-benzofuran-6-carboxamide] | 39.2% | 2.5 µM | 41%
19 | Cc1ccc(NC(=O)c2cc(Oc3ccc(S(C)(=O)=O)cc3)c3cc(C(F)F)oc3c2)nc1 [Example 321, 2-(Difluoromethyl)-N-(5-methylpyridin-2-yl)-4-[4-(methylsulfonyl)-phenoxy]-1-benzofuran-6-carboxamide] | 100% | 4.3 µM | 132%
20 | Cn1ccc(NC(=O)c2cc(Oc3ccc(S(C)(=O)=O)cc3)c3cc(C(F)F)oc3c2)n1 [Example 322, 2-(Difluoromethyl)-N-(1-methyl-1H-pyrazol-3-yl)-4-[4-(methylsulfonyl)-phenoxy]-1-benzofuran-6-carboxamide] | 161% | 6.3 µM | 235%
21 | Cc1ccc(NC(=O)c2cc(Oc3ccc(C(F)F)cc3)c3cc(C(=O)N(C)C)oc3c2)nc1 [Example 323, 4-[4-(Difluoromethyl)phenoxy]-N^2,N^2-dimethyl-N^6-(5-methylpyridin-2-yl)-1-benzofuran-2,6-dicarboxamide] | 78% | 3.7 µM | 83%
22 | Cc1ccc(NC(=O)c2cc(OC3CN(C(=O)N(C)C)C3)c3cc(C)oc3c2)nc1 [Example 324, N,N-Dimethyl-3-[(2-methyl-6-{[(5-methylpyridin-2-yl)amino]-carbonyl}-1-benzofuran-4-yl)oxy]azetidine-1-carboxamide] | 18.2% | – | –
23 | Cc1cc2c(OC3CN(S(C)(=O)=O)C3)cc(C(=O)Nc3cnn(C)n3)cc2o1 [Example 325, 2-Methyl-4-{[1-(methylsulfonyl)azetidin-3-yl]oxy}-N-(2-methyl-2H-1,2,3-triazol-4-yl)-1-benzofuran-6-carboxamide] | 137% | > 10 µM | –
24 | Cc1ccc(NC(=O)c2cc(OC3CN(S(C)(=O)=O)C3)c3cc(C)oc3c2)nc1 [Example 326, 2-Methyl-N-(5-methylpyridin-2-yl)-4-{[1-(methylsulfonyl)-azetidin-3-yl]oxy}-1-benzofuran-6-carboxamide] | 76.9% | 2.1 µM | 90%
25 | Cc1cc2c(OC3CN(S(C)(=O)=O)C3)cc(C(=O)Nc3ccn(C)n3)cc2o1 [Example 327, 2-Methyl-N-(1-methyl-1H-pyrazol-3-yl)-4-{[1-(methylsulfonyl)-azetidin-3-yl]oxy}-1-benzofuran-6-carboxamide] | 108% | > 10 µM | –
26 | Cc1cc2cc(C(=O)Nc3ccn(C)n3)cc(O[C@@H](C)Cc3ccccc3)c2s1 [Example 328, 2-Methyl-7-(1-methyl-2-phenylethoxy)-N-(1-methyl-1H-pyrazol-3-yl)-1-benzothiophene-5-carboxamide] | 41.3% | > 10 µM | –
27 | Cc1ccc(NC(=O)c2cc(Oc3ccc(S(C)(=O)=O)cc3)c3sc(C)cc3c2)nc1 [Example 329, 2-Methyl-N-(5-methylpyridin-2-yl)-7-[4-(methylsulfonyl)-phenoxy]-1-benzothiophene-5-carboxamide] | 86.8% | 1.6 µM | 113%
28 | Cc1cc2cc(C(=O)Nc3ccn(C)n3)cc(Oc3ccc(S(C)(=O)=O)cc3)c2s1 [Example 330, 2-Methyl-N-(1-methyl-1H-pyrazol-3-yl)-7-[4-(methylsulfonyl)-phenoxy]-1-benzothiophene-5-carboxamide] | 125% | 1.7 µM | 162%
29 | Cc1cc2cc(C(=O)Nc3ccn(C)n3)cc(Oc3ccc(C(=O)N(C)C)cc3)c2s1 [Example 331, 7-{4-[(Dimethylamino)carbonyl]phenoxy}-2-methyl-N-(1-methyl-1H-pyrazol-3-yl)-1-benzothiophene-5-carboxamide] | 47.4% | 0.32 µM | 56%
